Measurements published in patent US20230023092A1, “TREATMENT OF DEPRESSION AND OTHER VARIOUS DISORDERS WITH PSILOCYBIN” (COMPASS […], priority 2019, published 2023).

System: healthy subjects
Assay: Phase 1 study: adverse events (TEAEs, MedDRA coded)
Type: in vivo, human
Method: A Phase 1 randomized, double-blind, placebo-controlled study to evaluate the effect of psilocybin on cognitive and emotional processing as compared to placebo in healthy volunteers was conducted. The study investigated the short-term (Day 7) and long-term (Day 28) effects of moderate (10 mg) and high doses (25 mg) of psilocybin on key domains of cognition, such as episodic memory, attention, working and spatial memory, social cognition and elements of executive function, including cognitive flexibility.
Each subject was assigned 1 treatment bottle containing 5 capsules packaged in a double-blind fashion, depending on the randomized treatment arm, the bottle contained one of the following: • a. Psilocybin 10 mg: 2×5-mg oral psilocybin capsules plus 3×placebo capsules • b. Psilocybin 25 mg: 5×5-mg oral psilocybin capsules • c. Placebo: 5×placebo capsules
Each 5-mg oral psilocybin capsules comprised 5 mg crystalline psilocybin in the form or Polymorph A, 12.5 mg of SMCC 50, 79.5 mg of SMCC 90, 1 mg sodium starch glycolate, 1 mg colloidal silicon dioxide, and 1 mg sodium stearyl fumarate
Adverse events: Throughout the course of the study, all AEs were monitored and recorded. Each AE was classified according to the following criteria: • i. […] Moderate: The AE produces some impairment of functioning, but is not hazardous to the subject's health. • iii. Severe: The AE produces significant impairment of functioning or incapacitation and is a definite hazard to the subject's health.
Visit 3 (V3): Drug Administration (Day 0): The subject was asked to eat a light breakfast at least two hours prior to coming to the clinic for study drug administration. On Day 0 (V3), the subject underwent the SSTS, had vital signs obtained, medications reviewed, AEs recorded and eligibility reviewed prior to being randomized to study drug. The study drug was administered to up to six subjects simultaneously in individual beds separated by a curtain. The subject was invited to put on eyeshades and headphones, lie down and listen to calming music for the rest of the session (six hours). The subject was supported 1:1 with a chaperone and supervised by the study psychiatrist and lead therapist.
During administration of psilocybin, each subject received one-on-one support from a trained assisting therapist and each dosing session was supervised by a study psychiatrist and a lead therapist. The study drug was administered simultaneously to up to six participants as a single 5-capsule oral dose (10 mg psilocybin: 2×5-mg psilocybin capsules plus 3×placebo capsules; 25 mg psilocybin: 5×5-mg psilocybin capsules; placebo: 5×placebo capsules). Twenty-five dosing sessions were completed, with up to six participants dosed simultaneously per session. Each session lasted approximately 6 to 8 hours with subjects encouraged to relax and engage in introspection for the duration. After the acute effects of the study drug had subsided, subjects were discharged.

SMILES: CN(C)CCc1c[nH]c2cccc(OP(=O)(O)O)c12 [Psilocybin, psilocybin]
- Hypoaesthesia, worst severity Moderate, N (%) (10 mg oral): 0
- Hypoaesthesia, worst severity Severe, Events (10 mg oral): 0
- Hypoaesthesia, worst severity Severe, N (%) (10 mg oral): 0
- Illusion, Events (10 mg oral): 25
- Illusion, N (%) (10 mg oral): 19 (63.3)
- Illusion, worst severity Mild, Events (10 mg oral): 7
- Illusion, worst severity Mild, N (%) (10 mg oral): 7 (23.3)
- Illusion, worst severity Moderate, Events (10 mg oral): 16
- Illusion, worst severity Moderate, N (%) (10 mg oral): 12 (40.0)
- Illusion, worst severity Severe, Events (10 mg oral): 0
- Illusion, worst severity Severe, N (%) (10 mg oral): 0
- Infections and infestations, Events (10 mg oral): 4
- Infections and infestations, N (%) (10 mg oral): 4 (13.3)
- Infections and infestations, worst severity Mild, Events (10 mg oral): 2
- Infections and infestations, worst severity Mild, N (%) (10 mg oral): 2 (6.7)
- Infections and infestations, worst severity Moderate, Events (10 mg oral): 2
- Infections and infestations, worst severity Moderate, N (%) (10 mg oral): 2 (6.7)
- Infections and infestations, worst severity Severe, Events (10 mg oral): 0
- Infections and infestations, worst severity Severe, N (%) (10 mg oral): 0
- Investigations, Events (10 mg oral): 2
- Investigations, N (%) (10 mg oral): 2 (6.7)
- Investigations, worst severity Mild, Events (10 mg oral): 2
- Investigations, worst severity Mild, N (%) (10 mg oral): 2 (6.7)
- Investigations, worst severity Moderate, Events (10 mg oral): 0
- Investigations, worst severity Moderate, N (%) (10 mg oral): 0
- Investigations, worst severity Severe, Events (10 mg oral): 0
- Investigations, worst severity Severe, N (%) (10 mg oral): 0
- Memory impairment, Events (10 mg oral): 1
- Memory impairment, N (%) (10 mg oral): 1 (3.3)
- Mental fatigue, Events (10 mg oral): 0
- Mental fatigue, N (%) (10 mg oral): 0
- Mood altered, Events (10 mg oral): 23
- Mood altered, N (%) (10 mg oral): 13 (43.3)
- Mood altered, worst severity Mild, Events (10 mg oral): 2
- Mood altered, worst severity Mild, N (%) (10 mg oral): 2 (6.7)
- Mood altered, worst severity Moderate, Events (10 mg oral): 8
- Mood altered, worst severity Moderate, N (%) (10 mg oral): 5 (16.7)
- Mood altered, worst severity Severe, Events (10 mg oral): 9
- Mood altered, worst severity Severe, N (%) (10 mg oral): 6 (20.0)
- Musculoskeletal and connective tissue disorders, Events (10 mg oral): 1
- Musculoskeletal and connective tissue disorders, N (%) (10 mg oral): 1 (3.3)
- Musculoskeletal and connective tissue disorders, worst severity Mild, Events (10 mg oral): 0
- Musculoskeletal and connective tissue disorders, worst severity Mild, N (%) (10 mg oral): 0
- Musculoskeletal and connective tissue disorders, worst severity Moderate, Events (10 mg oral): 1
- Musculoskeletal and connective tissue disorders, worst severity Moderate, N (%) (10 mg oral): 1 (3.3)
- Musculoskeletal and connective tissue disorders, worst severity Severe, Events (10 mg oral): 0
- Musculoskeletal and connective tissue disorders, worst severity Severe, N (%) (10 mg oral): 0
- Nausea, Events (10 mg oral): 1
- Nausea, N (%) (10 mg oral): 1 (3.3)
- Nervous system disorders, Events (10 mg oral): 35
- Nervous system disorders, N (%) (10 mg oral): 21 (70.0)
- Nervous system disorders, worst severity Mild, Events (10 mg oral): 23
- Nervous system disorders, worst severity Mild, N (%) (10 mg oral): 15 (50.0)
- Nervous system disorders, worst severity Moderate, Events (10 mg oral): 8
- Nervous system disorders, worst severity Moderate, N (%) (10 mg oral): 6 (20.0)
- Nervous system disorders, worst severity Severe, Events (10 mg oral): 0
- Nervous system disorders, worst severity Severe, N (%) (10 mg oral): 0
- Paraesthesia, Events (10 mg oral): 4
- Paraesthesia, N (%) (10 mg oral): 4 (13.3)
- Paraesthesia, worst severity Mild, Events (10 mg oral): 4
- Paraesthesia, worst severity Mild, N (%) (10 mg oral): 4 (13.3)
- Paraesthesia, worst severity Moderate, Events (10 mg oral): 0
- Paraesthesia, worst severity Moderate, N (%) (10 mg oral): 0
- Paraesthesia, worst severity Severe, Events (10 mg oral): 0
- Paraesthesia, worst severity Severe, N (%) (10 mg oral): 0
- Psychiatric disorders, Events (10 mg oral): 121
- Psychiatric disorders, N (%) (10 mg oral): 27 (90.0)
- Psychiatric disorders, worst severity Mild, Events (10 mg oral): 6
- Psychiatric disorders, worst severity Mild, N (%) (10 mg oral): 4 (13.3)
- Psychiatric disorders, worst severity Moderate, Events (10 mg oral): 29
- Psychiatric disorders, worst severity Moderate, N (%) (10 mg oral): 13 (43.3)
- Psychiatric disorders, worst severity Severe, Events (10 mg oral): 21
- Psychiatric disorders, worst severity Severe, N (%) (10 mg oral): 10 (33.3)
- Psychomotor skills impaired, Events (10 mg oral): 1
- Psychomotor skills impaired, N (%) (10 mg oral): 1 (3.3)
- Respiratory, thoracic and mediastinal disorders, Events (10 mg oral): 0
- Respiratory, thoracic and mediastinal disorders, N (%) (10 mg oral): 0
- Selected TEAE: Nervous system disorders, Events (10 mg oral): 2
- Selected TEAE: Nervous system disorders, N (%) (10 mg oral): 2 (6.7)
- Selected TEAE: Psychiatric disorders, Events (10 mg oral): 104
- Selected TEAE: Psychiatric disorders, N (%) (10 mg oral): 27 (90.0)
- Somatic hallucination, Events (10 mg oral): 8
- Somatic hallucination, N (%) (10 mg oral): 8 (26.7)
- Somatic hallucination, worst severity Mild, Events (10 mg oral): 1
- Somatic hallucination, worst severity Mild, N (%) (10 mg oral): 1 (3.3)
- Somatic hallucination, worst severity Moderate, Events (10 mg oral): 7
- Somatic hallucination, worst severity Moderate, N (%) (10 mg oral): 7 (23.3)
- Somatic hallucination, worst severity Severe, Events (10 mg oral): 0
- Somatic hallucination, worst severity Severe, N (%) (10 mg oral): 0
- Substance-induced psychotic disorder, Events (10 mg oral): 0
- Substance-induced psychotic disorder, N (%) (10 mg oral): 0
- Tension headache, Events (10 mg oral): 3
- Tension headache, N (%) (10 mg oral): 3 (10.0)
- Tension headache, worst severity Mild, Events (10 mg oral): 1
- Tension headache, worst severity Mild, N (%) (10 mg oral): 1 (3.3)
- Tension headache, worst severity Moderate, Events (10 mg oral): 2
- Tension headache, worst severity Moderate, N (%) (10 mg oral): 2 (6.7)
- Tension headache, worst severity Severe, Events (10 mg oral): 0
- Tension headache, worst severity Severe, N (%) (10 mg oral): 0
- Time perception altered, Events (10 mg oral): 2
- Time perception altered, N (%) (10 mg oral): 2 (6.7)
- Time perception altered, worst severity Mild, Events (10 mg oral): 1
- Time perception altered, worst severity Mild, N (%) (10 mg oral): 1 (3.3)
- Time perception altered, worst severity Moderate, Events (10 mg oral): 1
- Time perception altered, worst severity Moderate, N (%) (10 mg oral): 1 (3.3)
- Time perception altered, worst severity Severe, Events (10 mg oral): 0
- Time perception altered, worst severity Severe, N (%) (10 mg oral): 0
- Adverse events reported by % of subjects (10 mg oral, 12-week study): 96.7%
- Reported 'Mood altered' events: Being less judgmental (number) (10 mg psilocybin (n = 30)): 1
- Reported 'Mood altered' events: Calm (number) (10 mg psilocybin (n = 30)): 0
- Reported 'Mood altered' events: Clarity of thought (number) (10 mg psilocybin (n = 30)): 0
- Reported 'Mood altered' events: Contemplative state (number) (10 mg psilocybin (n = 30)): 1
- Reported 'Mood altered' events: Feeling more moody/sensitive (number) (10 mg psilocybin (n = 30)): 1
- Reported 'Mood altered' events: Feeling of adrenaline release (number) (10 mg psilocybin (n = 30)): 0
- Reported 'Mood altered' events: Feeling rested (number) (10 mg psilocybin (n = 30)): 1
- Reported 'Mood altered' events: Increased compassion (number) (10 mg psilocybin (n = 30)): 0
- Reported 'Mood altered' events: Increased creativity (number) (10 mg psilocybin (n = 30)): 0
- Reported 'Mood altered' events: Increased empathy (number) (10 mg psilocybin (n = 30)): 2
- Reported 'Mood altered' events: Increased sense of connectedness (number) (10 mg psilocybin (n = 30)): 0
- Reported 'Mood altered' events: Increased wit (number) (10 mg psilocybin (n = 30)): 1
- Reported 'Mood altered' events: Introspection (number) (10 mg psilocybin (n = 30)): 5
- Reported 'Mood altered' events: Laughter (number) (10 mg psilocybin (n = 30)): 1
- Reported 'Mood altered' events: More socially upbeat (number) (10 mg psilocybin (n = 30)): 0
- Reported 'Mood altered' events: Negative mood (number) (10 mg psilocybin (n = 30)): 0
- Reported 'Mood altered' events: Reflections (number) (10 mg psilocybin (n = 30)): 3
- Reported 'Mood altered' events: Saw themselves from a new perspective (number) (10 mg psilocybin (n = 30)): 0
- Reported 'Mood altered' events: Sense of oneness (number) (10 mg psilocybin (n = 30)): 4
- Reported 'Mood altered' events: Sense of openness (number) (10 mg psilocybin (n = 30)): 1
- Reported 'Mood altered' events: Unusual appreciation of music (number) (10 mg psilocybin (n = 30)): 0
- AEs deemed potentially related to study treatment, % of AEs of the arm (25 mg oral): 95.9%
- Affect lability, Events (25 mg oral): 3
